What was measured:
[1] = molecular target: Beta Secretase enzyme (BACE) (Homo sapiens (Human), UniProt P56817); assay: In vitro enzymatic BACE FRET assay; format: biochemical; conditions: read-out: BACE1 Enzyme assay IC50
BACE = BACE (Homo sapiens (Human), UniProt P56817); assay: In vitro BACE cell-based assay (Aβ40 in conditioned medium, sandwich ELISA)
Cathepsin D (Cat D) = Cathepsin D (Cat D) (Homo sapiens (Human), UniProt P07339); assay: In vitro enzymatic Cathepsin D (Cat D) FRET assay; format: biochemical; conditions: read-out: CatD IC50
Sequence of Cathepsin D (Cat D) (P07339 65-412, species assumed): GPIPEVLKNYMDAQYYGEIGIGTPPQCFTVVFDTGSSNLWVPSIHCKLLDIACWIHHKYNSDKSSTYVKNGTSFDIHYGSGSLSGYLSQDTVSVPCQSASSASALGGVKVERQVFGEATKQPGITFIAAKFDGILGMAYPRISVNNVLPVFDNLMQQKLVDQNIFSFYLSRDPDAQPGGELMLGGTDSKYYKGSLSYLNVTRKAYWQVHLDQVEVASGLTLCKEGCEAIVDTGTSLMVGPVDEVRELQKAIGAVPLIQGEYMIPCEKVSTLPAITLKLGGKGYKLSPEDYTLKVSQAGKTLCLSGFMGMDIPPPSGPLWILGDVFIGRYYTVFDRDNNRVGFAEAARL

Sequence of BACE (P56817 46-501, species assumed): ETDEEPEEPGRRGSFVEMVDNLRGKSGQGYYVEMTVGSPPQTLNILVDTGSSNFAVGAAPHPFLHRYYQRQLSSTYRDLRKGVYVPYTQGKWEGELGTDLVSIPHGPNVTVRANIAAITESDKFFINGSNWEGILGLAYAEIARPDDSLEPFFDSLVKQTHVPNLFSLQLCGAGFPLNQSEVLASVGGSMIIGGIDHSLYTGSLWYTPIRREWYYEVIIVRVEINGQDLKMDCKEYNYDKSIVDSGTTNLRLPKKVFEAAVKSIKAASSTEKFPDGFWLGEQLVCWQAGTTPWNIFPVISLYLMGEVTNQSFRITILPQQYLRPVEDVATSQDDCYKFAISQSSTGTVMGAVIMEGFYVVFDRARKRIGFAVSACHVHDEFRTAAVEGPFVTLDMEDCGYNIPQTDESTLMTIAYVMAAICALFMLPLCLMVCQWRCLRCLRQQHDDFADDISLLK
Sequence of Beta Secretase enzyme (BACE) (P56817 46-501): as the sequence (P56817 46-501, species assumed) above

SMILES: NC1=N[C@@](c2cc(NC(=O)c3ccccn3)ccc2F)(C(F)F)[C@H]2C[C@H]2O1 [Example 292, N-(3-((1R,5S,6R)-3-amino-5-(difluoromethyl)-2-oxa-4-azabicyclo[4.1.0]hept-3-en-5-yl)-4-fluorophenyl) picolinamide]
- IC50 [1]: 0.3 µM
- IC50 (BACE): 0.279 µM
- IC50 (Cathepsin D (Cat D)): 690 µM

SMILES: Cc1cccnc1C(=O)Nc1ccc(F)c([C@@]2(C(F)F)N=C(N)O[C@@H]3C[C@@H]32)c1 [Example 293]
- IC50 [1]: 0.271 µM
- IC50 (BACE): 0.601 µM
- IC50 (Cathepsin D (Cat D)): 1660 µM

SMILES: COc1cnc(C(=O)Nc2ccc(C)c([C@@]3(C(F)F)N=C(N)O[C@@H]4C[C@@H]43)c2)cn1 [Example 294, N-(3-((1R,5S,6R)-3-amino-5-(difluoromethyl)-2-oxa-4-azabicyclo[4.1.0]hept-3-en-5-yl)-4-methylphenyl)-5-methoxypyrazine-2-carboxamide]
- IC50 [1]: 0.314 µM
- IC50 (BACE): 0.0612 µM
- IC50 (Cathepsin D (Cat D)): 684 µM

SMILES: Cc1ccc(NC(=O)c2ccc(Cl)cn2)cc1[C@@]1(C(F)F)N=C(N)O[C@@H]2C[C@@H]21 [Example 295, N-(3-((1R,5S,6R)-3-amino-5-(difluoromethyl)-2-oxa-4-azabicyclo[4.1.0]hept-3-en-5-yl)-4-methylphenyl)-5-chloropicolinamide]
- IC50 [1]: 0.0903 µM
- IC50 (BACE): 0.0129 µM
- IC50 (Cathepsin D (Cat D)): 464 µM

SMILES: NC1=N[C@](c2cc(NC(=O)c3ccc(Br)cn3)ccc2F)(C(F)F)[C@@H]2C[C@@H]2O1 [Example 296, N-(3-((1S,5R,6S)-3-amino-5-(difluoromethyl)-2-oxa-4-azabicyclo[4.1.0]hept-3-en-5-yl)-4-fluorophenyl)-5-bromopicolinamide]
- IC50 [1]: 4.19 µM
- IC50 (BACE): 3.51 µM
- IC50 (Cathepsin D (Cat D)): 1860 µM

SMILES: COc1cnc(C(=O)Nc2cc(C)c(F)c([C@@]3(C(F)F)N=C(N)O[C@@H]4C[C@@H]43)c2)c(C)n1 [Example 300, N-(3-((1R,5S,6R)-3-amino-5-(difluoromethyl)-2-oxa-4-azabicyclo[4.1.0]hept-3-en-5-yl)-4-fluoro-5-methylphenyl)-5-methoxy-3-methylpyrazine-2-carboxamide]
- IC50 [1]: 0.142 µM
- IC50 (BACE): 0.0405 µM
- IC50 (Cathepsin D (Cat D)): 447 µM

SMILES: COc1cnc(C(=O)Nc2ccc(Cl)c([C@@]3(CF)N=C(N)O[C@@H]4C[C@@H]43)c2)c(C)n1 [Example 301, N-(3-((1R,5S,6R)-3-amino-5-(fluoromethyl)-2-oxa-4-azabicyclo[4.1.0]hept-3-en-5-yl)-4-chlorophenyl)-5-methoxy-3-methylpyrazine-2-carboxamide]
- IC50 [1]: 0.352 µM
- IC50 (BACE): 0.031 µM
- IC50 (Cathepsin D (Cat D)): 715 µM

SMILES: COc1cnc(C(=O)Nc2cc(C)c(F)c([C@@]3(C(F)F)N=C(N)O[C@@H]4C[C@@H]43)c2)c(C)c1 [Example 305, N-(3-((1R,5S,6R)-3-amino-5-(difluoromethyl)-2-oxa-4-azabicyclo[4.1.0]hept-3-en-5-yl)-4-fluoro-5-methylphenyl)-5-methoxy-3-methylpicolinamide]
- IC50 [1]: 0.118 µM
- IC50 (BACE): 0.0696 µM
- IC50 (Cathepsin D (Cat D)): 288 µM

SMILES: COc1cc(F)cnc1C(=O)Nc1ccc(F)c([C@@]2(C(F)F)N=C(N)O[C@@H]3C[C@@H]32)c1 [Example 307, N-(3-((1R,5S,6R)-3-amino-5-(difluoromethyl)-2-oxa-4-azabicyclo[4.1.0]hept-3-en-5-yl)-4-fluorophenyl)-5-fluoro-3-methoxypicolinamide]
- IC50 [1]: 0.413 µM
- IC50 (BACE): 0.139 µM
- IC50 (Cathepsin D (Cat D)): > 400 µM

SMILES: NC1=N[C@@](c2cc(NC(=O)c3ncc(Cl)cc3CF)ccc2F)(C(F)F)[C@H]2C[C@H]2O1 [Example 308, N-(3-((1R,5S,6R)-3-amino-5-(difluoromethyl)-2-oxa-4-azabicyclo[4.1.0]hept-3-en-5-yl)-4-fluorophenyl)-5-chloro-3-(fluoromethyl) picolinamide]
- IC50 [1]: 0.0177 µM
- IC50 (BACE): 0.0321 µM
- IC50 (Cathepsin D (Cat D)): 186 µM
